Source: patent US12162858B2, “Quinoline derivatives as inhibitors of AXL/MER RTK and CSF1R” (QURIENT CO., LTD., priority 2018, dated 2024)

target: CSF1R (Homo sapiens, UniProt P07333); assay: Cellular CSF1R inhibition ELISA (p-CSF1R, M-CSF-induced) using THP-1 cells; format: cell-based; parameters: THP-1 cells act as a model for human monocytes; endogenous in cells; host or cells: THP-1
Description: The normal proto-oncogene c-fms encodes the macrophage growth factor (M-CSF, also known as CSF1) receptor involved in growth, survival, and differentiation along the monocyte-macrophage lineage. THP-1 cells act as a model for human monocytes. It confirms that an increased phosphorylation of CSF1R (p-CSF1R) can be observed, when induced by CSF1R ligand, CSF1.
The THP-1 cells should be maintained from 5×10^5 to 1×10^6 cells/ml in the cell culture flask. After centrifugation, the supernatant is aspirated. The cell pellet is re-suspended with pre-warmed growth medium (RPMI1640, 10% FBS, 0.05 mM 2-Mercaptoethanol) and cells are separated by pipetting 6 times up and down with a 10 ml serological pipette. The cell suspension has to be diluted to a final concentration of 2×10^5 cells per 80 μl with pre-warmed growth medium. 80 μl of cell suspension is added to all wells of plates. Cell-plates are incubated at 37° C./5% CO2. Dissolve compound in 100% DMSO to make 10 mM stock solutions (Aliquots stored in the Nitrogen Cabinet). Dilute 10 mM compounds solutions for 2-fold in 100% DMSO to get 5 mM solutions (10 μl+10 μl DMSO), and then make a 3-fold serial dilution (10 μl+20 μl DMSO) for 10 doses. For reference compounds: Dilute 10 mM compounds solutions for 20-fold in 100% DMSO to get 0.5 mM solutions (2 μl+38 μl DMSO), and then make a 3-fold serial dilution (10 μl+20 μl DMSO) for 10 doses. Transfer 2 μl diluted compounds to 198 μl medium to get solution of 50 μM concentration at top point for compounds and 5 μM for reference compounds. Then transfer 20 μl cpd solution into assay plate (Duplicate wells). The plate is incubated at 37° C./5% CO2 for 24 h. The final concentration of DMSO in all wells is […]. Reconstitute human M-CSF at 50 μg/ml in sterile water. (Aliquots stored in −80° C.). 1:1000 dilute human M-CSF by fresh medium to 50 ng/ml. After 24 h compounds treatment, transfer 25 μl diluted human M-CSF (50 ng/ml) to cell plate according to the plate map. The final concentration of human M-CSF in all wells is 10 ng/ml.
The plates is incubated at 37° C./5% CO2 for 5 min. In the beginning the appropriate amount of lysis buffer complete (100 μL/well) is prepared and stored on ice. After 5 min human M-CSF stimulation, wash plates once with 300 μL ice cold PBS. Then 100 μl lysis buffer is added to each well. The plate is shacked for 40 min at 4° C. Plates can now be stored at −20° C. After equilibrate the micro-well strips at room temperature, break off the required number of micro-wells. Place the micro-wells in the strip holder. Unused micro-wells must be resealed and stored at 4° C. immediately. Add 90 μl of cell lysate to the appropriate well. Seal with tape and press firmly onto top of micro-wells. Incubate the plate for 2 h at 37° C. Gently remove the tape and wash wells 4 times with 1× Wash Buffer, 200 μl each time for each well. Add 100 μl of reconstituted Detection Antibody (green color) to each well. Seal with tape and incubate the plate at 37° C. for 1 h. Repeat wash procedure. Add 100 μl of reconstituted HRP-Linked secondary antibody to each well. Seal with tape and incubate the plate for 30 min at 37° C. Repeat wash procedure. Add 100 μl of TMB Substrate to each well. Seal with tape and incubate the plate for 10 min at 37° C. or 30 min at 25° C. Calculations and Formulas: The following calculations and formulas are used for data analysis using XL Fit software: The curve fitting was made using the Sigmoidal Dose-Response Model (Fit model, 205).

Sequence of CSF1R (P07333 20-972): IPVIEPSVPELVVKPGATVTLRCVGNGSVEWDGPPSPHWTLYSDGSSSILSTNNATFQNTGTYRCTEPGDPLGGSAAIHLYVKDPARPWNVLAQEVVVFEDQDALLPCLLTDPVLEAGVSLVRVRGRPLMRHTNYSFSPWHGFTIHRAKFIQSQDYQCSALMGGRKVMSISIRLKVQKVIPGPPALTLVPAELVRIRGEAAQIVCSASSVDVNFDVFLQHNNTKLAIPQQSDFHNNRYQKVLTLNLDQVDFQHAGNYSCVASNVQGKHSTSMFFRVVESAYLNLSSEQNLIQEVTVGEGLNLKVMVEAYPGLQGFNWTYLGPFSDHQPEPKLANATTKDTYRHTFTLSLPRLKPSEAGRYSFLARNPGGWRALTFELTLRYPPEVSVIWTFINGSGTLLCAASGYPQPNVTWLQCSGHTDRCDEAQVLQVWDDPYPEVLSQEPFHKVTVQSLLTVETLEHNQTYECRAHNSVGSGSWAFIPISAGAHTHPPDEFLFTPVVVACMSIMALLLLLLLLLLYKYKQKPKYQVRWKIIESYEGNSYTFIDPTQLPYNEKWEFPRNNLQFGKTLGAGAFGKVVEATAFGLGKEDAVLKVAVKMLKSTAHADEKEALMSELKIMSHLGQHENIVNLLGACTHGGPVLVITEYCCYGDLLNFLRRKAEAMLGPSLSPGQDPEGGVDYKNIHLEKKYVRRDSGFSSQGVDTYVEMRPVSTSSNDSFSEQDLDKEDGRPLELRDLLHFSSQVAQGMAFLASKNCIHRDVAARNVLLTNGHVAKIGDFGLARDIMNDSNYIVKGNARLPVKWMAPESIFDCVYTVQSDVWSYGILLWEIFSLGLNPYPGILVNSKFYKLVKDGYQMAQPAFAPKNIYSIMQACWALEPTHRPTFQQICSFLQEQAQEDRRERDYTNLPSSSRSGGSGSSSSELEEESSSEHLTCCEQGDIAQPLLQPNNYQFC

| SMILES | IC50 |
| --- | --- |
| COc1cc2nccc(Oc3ccc(NC(=O)c4nn(C5CC5)cc4OC(C)C)nc3)c2cc1OC [Compound 108] | < 500 nM |
| COc1cc2nccc(Oc3ccc(NC(=O)c4nn(CC(C)C)cc4OCC(F)(F)F)cn3)c2cc1OC [Compound 103] | ≥ 1000 nM |
| COCCn1cc(OCC(F)(F)F)c(C(=O)Nc2ccc(Oc3ccnc4cc(OC)c(OC)cc34)nc2)n1 [Compound 104] | ≥ 1000 nM |
| COc1cc2nccc(Oc3ccc(NC(=O)c4nn(CCOC5CC5)cc4OCC(F)(F)F)cn3)c2cc1OC [Compound 130] | ≥ 1000 nM |
| CNCCn1cc(OCC(F)(F)F)c(C(=O)Nc2ccc(Oc3ccnc4cc(OC)c(OC)cc34)cc2)n1 [Compound 119] | ≥ 1000 nM |
| CNCCn1cc(OCC(F)(F)F)c(C(=O)Nc2ccc(Oc3ccnc4cc(OC)c(OC)cc34)cn2)n1 [Compound 11] | 500 to 1000 nM |
| COc1cc2nccc(Oc3ccc(NC(=O)c4nn(C5CCN(C)C5)cc4OCC(F)(F)F)nn3)c2cc1OC (stereo not drawn) [Compound 157] | 500 to 1000 nM |
| COc1cc2nccc(Oc3ccc(NC(=O)c4nn(C5CC5)cc4OCC4COC4)nc3)c2cc1OC [Compound 143] | < 500 nM |
| COc1cc2nccc(Oc3ccc(NC(=O)c4nn(CC5COC5)cc4OCC(F)(F)F)cc3C)c2cc1OC [Compound 99] | 500 to 1000 nM |
| COc1cc2nccc(Oc3ccc(NC(=O)c4nn(C5CCOC5)cc4OCC(F)(F)F)cn3)c2cc1OC (stereo not drawn) [Compound 138] | ≥ 1000 nM |
| CCCn1cc(OCC2CNC2)c(C(=O)Nc2ccc(Oc3ccnc4cc(OC)c(OC)cc34)cn2)n1 [Compound 159] | ≥ 1000 nM |
| COCCOc1cn(CC(C)O)nc1C(=O)Nc1ccc(Oc2ccnc3cc(OC)c(OC)cc23)cn1 (stereo not drawn) [Compound 150] | ≥ 1000 nM |
| COc1cc2nccc(Oc3ccc(NC(=O)c4nn(CC5COC5)cc4OCC(F)(F)F)cn3)c2cc1OC [Compound 134] | ≥ 1000 nM |
| COc1cc2nccc(Oc3ccc(NC(=O)c4nn(CCO)cc4OCC(F)(F)F)cn3)c2cc1OC [Compound 129] | ≥ 1000 nM |
| COc1cc2nccc(Oc3ccc(NC(=O)c4nn(CC5COC5)cc4OCC(F)(F)F)cc3)c2cc1OC [Compound 101] | ≥ 1000 nM |
| COc1cc2nccc(Oc3ccc(NC(=O)c4nn(C5CC5)cc4OCCF)nc3)c2cc1OC [Compound 110] | < 500 nM |
| COc1cc2nccc(Oc3ccc(NC(=O)c4nn(C5CC5)cc4OCC(F)F)nc3)c2cc1OC [Compound 109] | < 500 nM |
| COc1cc2nccc(Oc3ccc(NC(=O)c4nn(CCOC5CC5)cc4OCC(F)(F)F)c(F)c3)c2cc1OC [Compound 115] | 500 to 1000 nM |
| CCCn1cc(OCC(F)(F)F)c(C(=O)Nc2ccc(Oc3ccnc4cc(OC)c(OC)cc34)c(C(F)(F)F)c2)n1 [Compound 114] | ≥ 1000 nM |
| CCCn1cc(OCCNC)c(C(=O)Nc2ccc(Oc3ccnc4cc(OC)c(OC)cc34)cn2)n1 [Compound 140] | ≥ 1000 nM |
| COc1cc2nccc(Oc3ccc(NC(=O)c4nn(CC5COC5)cc4OCC(F)(F)F)cc3F)c2cc1OC [Compound 97] | ≥ 1000 nM |
| COc1cc2nccc(Oc3ccc(NC(=O)c4nn(C5CC5)cc4NCC(F)(F)F)nn3)c2cc1OC [Compound 148] | ≥ 1000 nM |
| COc1cc2nccc(Oc3ccc(NC(=O)c4nn(CC(C)O)cc4OCCF)nc3)c2cc1OC (stereo not drawn) [Compound 152] | < 500 nM |
| CCCn1cc(NCCC(F)(F)F)c(C(=O)Nc2ccc(Oc3ccnc4cc(OC)c(OC)cc34)cn2)n1 [Compound 158] | < 500 nM |
| COc1cc2nccc(Oc3ccc(NC(=O)c4nn(C5CC5)cc4NCCC(F)(F)F)nc3)c2cc1OC [Compound 142] | < 500 nM |
| COc1cc2nccc(Oc3ccc(NC(=O)c4nn(CC(C)O)cc4OCC4CCC4)nc3)c2cc1OC (stereo not drawn) [Compound 163] | 500 to 1000 nM |
| CCCn1cc(OCC(F)(F)F)c(C(=O)Nc2ccc(Oc3ccnc4cc(OC)c(OC)cc34)nc2)n1 [Compound 139] | ≥ 1000 nM |

| SMILES | IC50 |
| --- | --- |
| COCCn1cc(OCC(F)(F)F)c(C(=O)Nc2ccc(Oc3ccnc4cc(OC)c(OC)cc34)nn2)n1 [Compound 126] | ≥ 1000 nM |
| CNCCOc1cn(C2CC2)nc1C(=O)Nc1ccc(Oc2ccnc3cc(OC)c(OC)cc23)cn1 [Compound 141] | ≥ 1000 nM |
| COc1cc2nccc(Oc3ccc(NC(=O)c4nn(C5CC5)cc4OCC4COC4)nn3)c2cc1OC [Compound 161] | ≥ 1000 nM |
| COc1cc2nccc(Oc3ccc(NC(=O)c4nn(C5CCN(C)C5)cc4OCC(F)(F)F)cc3C)c2cc1OC (stereo not drawn) [Compound 98] | ≥ 1000 nM |
| COc1cc2nccc(Oc3ccc(NC(=O)c4nn(CCN)cc4OCC(F)(F)F)nn3)c2cc1OC [Compound 125] | ≥ 1000 nM |
| CCCn1cc(OCCOC)c(C(=O)Nc2ccc(Oc3ccnc4cc(OC)c(OC)cc34)cn2)n1 [Compound 105] | < 500 nM |
| COc1cc2nccc(Oc3ccc(NC(=O)c4nn(C5CCCC5)cc4OCC(F)(F)F)nn3)c2cc1OC [Compound 121] | < 500 nM |
| COc1cc2nccc(Oc3ccc(NC(=O)c4nn(C5CC5)cc4OCC4CCC4)nc3)c2cc1OC [Compound 111] | 500 to 1000 nM |
| COc1cc2nccc(Oc3ccc(NC(=O)c4nn(C5CCN(C)C5)cc4OCC(F)(F)F)cc3F)c2cc1OC (stereo not drawn) [Compound 96] | ≥ 1000 nM |
| COc1cc2nccc(Oc3ccc(NC(=O)c4nn(CC(C)O)cc4OCC(F)(F)F)cn3)c2cc1OC (stereo not drawn) [Compound 136] | ≥ 1000 nM |
| COc1cc2nccc(Oc3ccc(NC(=O)c4nn(C)cc4OCC(F)(F)F)nn3)c2cc1OC [Compound 102] | < 500 nM |
| COCCOc1cn(C2CC2)nc1C(=O)Nc1ccc(Oc2ccnc3cc(OC)c(OC)cc23)cn1 [Compound 107] | < 500 nM |
| CNCCn1cc(OCC(F)(F)F)c(C(=O)Nc2ccc(Oc3ccnc4cc(OC)c(OC)cc34)cc2F)n1 [Compound 154] | ≥ 1000 nM |
| COc1cc2nccc(Oc3ccc(NC(=O)c4nn(CC(C)O)cc4OC(C)C)nc3)c2cc1OC (stereo not drawn) [Compound 151] | < 500 nM |
| COc1cc2nccc(Oc3ccc(NC(=O)c4nn(CCOC5CC5)cc4OCC(F)(F)F)nc3)c2cc1OC [Compound 153] | < 500 nM |
| COc1cc2nccc(Oc3ccc(NC(=O)c4nn(CC5COC5)cc4OCC(F)(F)F)nn3)c2cc1OC [Compound 123] | ≥ 1000 nM |
| CCn1cc(OCC2CCC2)c(C(=O)Nc2ccc(Oc3ccnc4cc(OC)c(OC)cc34)cn2)n1 [Compound 8] | < 500 nM |
| COc1cc2nccc(Oc3ccc(NC(=O)c4nn(C5CC5)cc4OCC4CNC4)nc3)c2cc1OC [Compound 144] | ≥ 1000 nM |
| CCCn1cc(OCC2COC2)c(C(=O)Nc2ccc(Oc3ccnc4cc(OC)c(OC)cc34)cn2)n1 [Compound 106] | < 500 nM |
| COc1cc2nccc(Oc3ccc(NC(=O)c4nn(CCN(C)C)cc4OCC(F)(F)F)nc3)c2cc1OC [Compound 9] | < 500 nM |
| CCn1cc(OC(C)C)c(C(=O)Nc2ccc(Oc3ccnc4cc(OC)c(OC)cc34)cn2)n1 [Compound 6] | < 500 nM |
| COc1cc2nccc(Oc3ccc(NC(=O)c4nn(CC(C)C)cc4OCC(F)(F)F)nn3)c2cc1OC [Compound 124] | 500 to 1000 nM |
| COc1cc2nccc(Oc3ccc(NC(=O)c4nn(C5CC5)cc4OCC(F)F)nn3)c2cc1OC [Compound 162] | < 500 nM |
| COc1cc2nccc(Oc3ccc(NC(=O)c4nn(CCN)cc4OCC(F)(F)F)cn3)c2cc1OC [Compound 135] | ≥ 1000 nM |
| CNCCn1cc(OCC(F)(F)F)c(C(=O)Nc2ccc(Oc3ccnc4cc(OC)c(OC)cc34)c(C)c2)n1 [Compound 156] | ≥ 1000 nM |
| COc1cc2nccc(Oc3ccc(NC(=O)c4nn(CCOC5CC5)cc4OCC(F)(F)F)cc3C)c2cc1OC [Compound 117] | < 500 nM |
| CNCCn1cc(OCC(F)(F)F)c(C(=O)Nc2ccc(Oc3ccnc4cc(OC)c(OC)cc34)nc2)n1 [Compound 137] | ≥ 1000 nM |
